# Results taken from patent US6362369B1, “Phthalic acid diamide derivatives fluorine-containing aniline compounds as starting material, agricultural and horticultural insecticides, and a method for application of the insecticides” (Nihon Nohyaku Co., Ltd., priority 1997, dated 2002).
# Experiments:
# Assay type in all cases: in vivo
# [1] = system: common cutworm (Spodoptera Litura); test: Insecticidal effect on common cutworm (Test Example 2); conditions: 500 ppm, 25° C.; for Insecticidal effect, Test Example 2: cabbage leaf immersed; for Insecticidal effect, Test Example 2 / Insecticidal effect on common cutworm (Test Example 2), judged grade: eight days after inoculation; for Insecticidal effect on common cutworm (Test Example 2), judged grade / Insecticidal effect (Test Example 2), judged from mortality: cabbage leaf dip; for Insecticidal effect on common cutworm (Test Example 2), judged grade: second-instar larvae; for Insecticidal effect (Test Example 2), judged from mortality: 8 days after inoculation
# Procedure, shortened: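 Second-instar larvae placed in 9 cm Petri dishes with air-dried treated material, held at 25 °C. Dead and live insects counted 8 days after inoculation; mortality calculated and scored against a set criterion. Triplicate groups of 10 insects.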
# [2] = system: rice leafroller (Cnaphalocrocis medinalis); test: Insecticidal effect on rice leafroller (Test Example 3); conditions: 500 ppm, 25° C., humidity 70%; for Insecticidal effect, Test Example 3: rice lamina immersed; for Insecticidal effect, Test Example 3 / Insecticidal effect on rice leafroller (Test Example 3), judged grade: four days after inoculation; for Insecticidal effect on rice leafroller (Test Example 3), judged grade / Insecticidal effect (Test Example 3), judged from mortality: rice lamina dip; for Insecticidal effect on rice leafroller (Test Example 3), judged grade: third-instar larvae; for Insecticidal effect (Test Example 3), judged from mortality: 4 days after inoculation
# Procedure, shortened: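 Insecticidal effect is judged by a predefined criterion from dead/alive counts four days after infesting air-dried lamina with third-instar larvae, kept on moistened filter paper at 25° C, 70% humidity.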
# [3] = system: diamondback moth (Plutella xylostella); test: Insecticidal effect on diamondback moth (Test Example 1); conditions: for Insecticidal effect, Test Example 1 / Insecticidal effect (Test Example 1), judged from mortality: diamondback moth; for Insecticidal effect on diamondback moth (Test Example 1), judged grade: mortality judged according to the criterion shown in Test Example 1; for Insecticidal effect (Test Example 1), judged from mortality: judged by the criterion of Test Example 1
# Procedure, shortened: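 Triplicate groups of 10 insects: eggs laid on Chinese cabbage seedling by adults, seedling immersed then air-dried, kept at 25° C. Day-6 hatch counts gave mortality, rated by criterion.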
# [4] = common cutworm second-instar larvae
# [5] = rice leafroller third-instar larvae
# [6] = mortality judged by criterion of Test Example 1
# [7] = second-instar larvae of common cutworm
# [8] = third-instar larvae of rice leafroller
# [9] = judged by the mortality criterion of Test Example 1
compound,measurement,setting,value
C=CCNC(=O)c1c(I)cccc1C(=O)Nc1ccc(C(F)(F)C(F)(F)F)cc1C [compound 987],"Insecticidal effect, Test Example 2",[1]; [4],A (100)
same,"Insecticidal effect, Test Example 3",[2]; [5],A (100)
same,"Insecticidal effect, Test Example 1",[3]; [6],A (100)
Cc1cc(OC(F)(F)F)ccc1NC(=O)c1ccccc1C(=O)NC(C)(C)C [compound 930],"Insecticidal effect on common cutworm (Test Example 2), judged grade",[1],A (100)
same,"Insecticidal effect on rice leafroller (Test Example 3), judged grade",[2],A (100)
same,"Insecticidal effect on diamondback moth (Test Example 1), judged grade",[3],A (100)
Cc1cc(OC(F)F)ccc1NC(=O)c1c(F)ccc(F)c1C(=O)NC(C)C [compound 581],"Insecticidal effect on common cutworm (Test Example 2), judged grade",[1],B (99-90)
same,"Insecticidal effect on rice leafroller (Test Example 3), judged grade",[2],A (100)
same,"Insecticidal effect on diamondback moth (Test Example 1), judged grade",[3],A (100)
Cc1cc(C(F)(F)C(F)(F)F)ccc1NC(=O)c1cccc(Cl)c1C(=O)NCC(C)O (stereo not drawn) [compound 1315],"Insecticidal effect, Test Example 2",[1]; [4],A (100)
same,"Insecticidal effect, Test Example 3",[2]; [5],A (100)
same,"Insecticidal effect, Test Example 1",[3]; [6],A (100)
CC(C)NC(=O)c1cccc(F)c1C(=O)Nc1ccc(C(F)(C(F)(F)F)C(F)(F)F)cc1Cl [compound 561],"Insecticidal effect on common cutworm (Test Example 2), judged grade",[1],C (89-80)
same,"Insecticidal effect on rice leafroller (Test Example 3), judged grade",[2],A (100)
same,"Insecticidal effect on diamondback moth (Test Example 1), judged grade",[3],A (100)
Cc1cc(C(F)(F)C(F)(F)F)ccc1NC(=O)c1cccc(I)c1C(=O)NC(C)(C)C [compound 942],"Insecticidal effect, Test Example 2",[1]; [4],A (100)
same,"Insecticidal effect, Test Example 3",[2]; [5],A (100)
same,"Insecticidal effect, Test Example 1",[3]; [6],A (100)
CC(C)NC(=O)c1c(Cl)cccc1C(=O)Nc1ccc2c(c1)nc(C(F)(F)F)n2C [compound 167],"Insecticidal effect, Test Example 2",[1]; [7],A (100)
same,"Insecticidal effect, Test Example 3",[2]; [8],A (100)
same,"Insecticidal effect, Test Example 1",[3]; [9],A (100)
Cc1cc(Cl)ccc1NC(=O)c1c(Br)cccc1C(=O)NC(C)C [compound 306],"Insecticidal effect, Test Example 2",[1]; [7],A (100)
same,"Insecticidal effect, Test Example 3",[2]; [8],A (100)
same,"Insecticidal effect, Test Example 1",[3]; [9],A (100)
Cc1cc(C(F)(C(F)(F)F)C(F)(F)F)ccc1NC(=O)c1cccc(I)c1C(=O)NC(C)(C)C [compound 1039],"Insecticidal effect, Test Example 2",[1]; [4],A (100)
same,"Insecticidal effect, Test Example 3",[2]; [5],A (100)
same,"Insecticidal effect, Test Example 1",[3]; [6],A (100)
Cc1cc(C(F)(C(F)(F)F)C(F)(F)F)ccc1NC(=O)c1cccc(C(F)(F)F)c1C(=O)NC(C)(C)C [compound 1232],"Insecticidal effect, Test Example 2",[1]; [4],A (100)
same,"Insecticidal effect, Test Example 3",[2]; [5],A (100)
same,"Insecticidal effect, Test Example 1",[3]; [6],A (100)
Cc1cc(C(F)(F)C(F)(F)F)ccc1NC(=O)c1cccc(Cl)c1C(=O)NC(C)c1cccc(Cl)c1 (stereo not drawn) [compound 1364],"Insecticidal effect, Test Example 2",[1]; [4],A (100)
same,"Insecticidal effect, Test Example 3",[2]; [5],A (100)
same,"Insecticidal effect, Test Example 1",[3]; [6],A (100)
Cc1cc(OC(F)(F)C(F)F)ccc1NC(=O)c1ccc(I)cc1C(=O)NC(C)C [compound 1248],"Insecticidal effect, Test Example 2",[1]; [4],A (100)
same,"Insecticidal effect, Test Example 3",[2]; [5],A (100)
same,"Insecticidal effect, Test Example 1",[3]; [6],A (100)
CCNC(=O)c1c(C(=O)Nc2cc(Cl)ccc2C)cccc1[N+](=O)[O-] [compound 10],"Insecticidal effect, Test Example 2",[1]; [7],D (79-50)
same,"Insecticidal effect, Test Example 3",[2]; [8],D (79-50)
same,"Insecticidal effect, Test Example 1",[3]; [9],A (100)
Cc1cc(OC(F)(F)C(F)(F)Br)ccc1NC(=O)c1c(Cl)cccc1C(=O)NC(C)C [compound 229],"Insecticidal effect, Test Example 2",[1]; [7],D (79-50)
same,"Insecticidal effect, Test Example 3",[2]; [8],A (100)
same,"Insecticidal effect, Test Example 1",[3]; [9],A (100)
CCN(CC)C(=O)c1c(Cl)cccc1C(=O)Nc1ccc(Cl)cc1C [compound 1542],"Insecticidal effect (Test Example 2), judged from mortality",[1]; [7],D (79-50)
same,"Insecticidal effect (Test Example 3), judged from mortality",[2]; [8],A (100)
same,"Insecticidal effect (Test Example 1), judged from mortality",[3],A (100)
CCN(CC)C(=O)c1c(I)cccc1C(=O)Nc1ccc(C(F)(F)F)cc1C [compound 1144],"Insecticidal effect, Test Example 2",[1]; [4],A (100)
same,"Insecticidal effect, Test Example 3",[2]; [5],A (100)
same,"Insecticidal effect, Test Example 1",[3]; [6],A (100)
Cc1cc(C(F)(F)C(F)(F)F)ccc1NC(=O)c1cccc(Cl)c1C(=O)NCc1ccccc1Cl [compound 1309],"Insecticidal effect, Test Example 2",[1]; [4],A (100)
same,"Insecticidal effect, Test Example 3",[2]; [5],A (100)
same,"Insecticidal effect, Test Example 1",[3]; [6],A (100)
Cc1cc(OC(F)(F)C(F)Cl)ccc1NC(=O)c1c(Cl)cccc1C(=O)NC(C)C (stereo not drawn) [compound 241],"Insecticidal effect, Test Example 2",[1]; [7],B (99-90)
same,"Insecticidal effect, Test Example 3",[2]; [8],A (100)
same,"Insecticidal effect, Test Example 1",[3]; [9],A (100)
Cc1c(NC(=O)c2cccc(F)c2C(=O)NC(C)C)cccc1OC(F)F [compound 499],"Insecticidal effect on common cutworm (Test Example 2), judged grade",[1],A (100)
same,"Insecticidal effect on rice leafroller (Test Example 3), judged grade",[2],A (100)
same,"Insecticidal effect on diamondback moth (Test Example 1), judged grade",[3],A (100)
Cc1cc(OC(F)(F)C(F)(Br)C(F)(F)F)ccc1NC(=O)c1c(I)cccc1C(=O)NC(C)C (stereo not drawn) [compound 446],"Insecticidal effect on common cutworm (Test Example 2), judged grade",[1],A (100)
same,"Insecticidal effect on rice leafroller (Test Example 3), judged grade",[2],A (100)
same,"Insecticidal effect on diamondback moth (Test Example 1), judged grade",[3],A (100)
COc1cc(C(F)(C(F)(F)F)C(F)(F)F)ccc1NC(=O)c1cccc(I)c1C(=O)NC(C)C [compound 1715],"Insecticidal effect (Test Example 2), judged from mortality",[1]; [7],A (100)
same,"Insecticidal effect (Test Example 3), judged from mortality",[2]; [8],A (100)
same,"Insecticidal effect (Test Example 1), judged from mortality",[3],A (100)
Cc1cc(OC(F)(F)C(F)C(F)(F)F)ccc1NC(=O)c1cccc(Br)c1C(=O)NC(C)C (stereo not drawn) [compound 291],"Insecticidal effect, Test Example 2",[1]; [7],A (100)
same,"Insecticidal effect, Test Example 3",[2]; [8],A (100)
same,"Insecticidal effect, Test Example 1",[3]; [9],A (100)
CC(C)NC(=O)c1c(I)cccc1C(=O)Nc1ccc2c(c1)OC(F)(F)C(F)O2 (stereo not drawn) [compound 1161],"Insecticidal effect, Test Example 2",[1]; [4],D (79-50)
same,"Insecticidal effect, Test Example 3",[2]; [5],A (100)
same,"Insecticidal effect, Test Example 1",[3]; [6],A (100)
CCC(C)NC(=O)c1c(I)cccc1C(=O)Nc1ccc(C(F)(F)C(F)(F)F)cc1F (stereo not drawn) [compound 1472],"Insecticidal effect (Test Example 2), judged from mortality",[1]; [7],A (100)
same,"Insecticidal effect (Test Example 3), judged from mortality",[2]; [8],A (100)
same,"Insecticidal effect (Test Example 1), judged from mortality",[3],A (100)
Cc1cc(C(F)(F)C(F)(F)F)ccc1NC(=O)c1cccc(I)c1C(=O)NCC(F)(F)F [compound 1040],"Insecticidal effect, Test Example 2",[1]; [4],A (100)
same,"Insecticidal effect, Test Example 3",[2]; [5],A (100)
same,"Insecticidal effect, Test Example 1",[3]; [6],A (100)
CCN(CC)C(=O)c1c(I)cccc1C(=O)Nc1ccc(C(F)(F)C(F)(F)F)cc1C [compound 1561],"Insecticidal effect (Test Example 2), judged from mortality",[1]; [7],A (100)
same,"Insecticidal effect (Test Example 3), judged from mortality",[2]; [8],A (100)
same,"Insecticidal effect (Test Example 1), judged from mortality",[3],A (100)
CC(C)NC(=O)c1c(I)cccc1C(=O)Nc1ccc(SC(F)(F)C(F)F)cc1 [compound 356],"Insecticidal effect, Test Example 2",[1]; [7],A (100)
same,"Insecticidal effect, Test Example 3",[2]; [8],A (100)
same,"Insecticidal effect, Test Example 1",[3]; [9],A (100)
Cc1cc(C(F)(F)C(F)(F)F)ccc1NC(=O)c1cccc(Cl)c1C(=O)NC(C)(C)C(Br)CBr (racemic) [compound 1603],"Insecticidal effect (Test Example 2), judged from mortality",[1]; [7],A (100)
same,"Insecticidal effect (Test Example 3), judged from mortality",[2]; [8],A (100)
same,"Insecticidal effect (Test Example 1), judged from mortality",[3],A (100)
CC(C)(C)NC(=O)c1c(F)cccc1C(=O)Nc1ccc(C(F)(F)C(F)(F)F)cc1F [compound 1507],"Insecticidal effect (Test Example 2), judged from mortality",[1]; [7],A (100)
same,"Insecticidal effect (Test Example 3), judged from mortality",[2]; [8],A (100)
same,"Insecticidal effect (Test Example 1), judged from mortality",[3],A (100)
Cc1ccccc1NC(=O)c1ccc(Cl)cc1C(=O)NC(C)C [compound 170],"Insecticidal effect, Test Example 2",[1]; [7],D (79-50)
same,"Insecticidal effect, Test Example 3",[2]; [8],B (99-90)
same,"Insecticidal effect, Test Example 1",[3]; [9],A (100)
Cc1cc(Oc2ncc(C(F)(F)F)cc2Cl)ccc1NC(=O)c1cccc(Br)c1C(=O)NC(C)C [compound 298],"Insecticidal effect, Test Example 2",[1]; [7],A (100)
same,"Insecticidal effect, Test Example 3",[2]; [8],A (100)
same,"Insecticidal effect, Test Example 1",[3]; [9],A (100)
